This is an account of results in patent US10265321B2, “Uses of salt-inducible kinase (SIK) inhibitors” (Dana-Farber Cancer Institute, Inc., priority 2014, dated 2019).

A word on the IC50: it is the point on the concentration scale where inhibition reaches its midpoint.

Assay [1] relates to Il10-Thy1.1 reporter in 10BiT BMDCs. Description: Il10-Thy1.1 reporter gene detection in 10BiT BMDCs. Format: cell-based, mouse. To be noted: 2 days treatment (0.5 μM), zymosan 18 hr. How it is done:
(§1) Bone marrow-derived DCs were differentiated from C57BL/6 bone marrow in the presence of GM-CSF-conditioned media. CD11c^+ CX3CR1^hi myeloid cells and CD11c^+ CX3CR1^− DCs were isolated from the small intestine lamina propria of Cx3cr1^eGFP/+ mice (12). Detection of cell-surface Thy1.1 expression on BMDCs from 10BiT reporter mice was conducted as described previously (24). Cell viability was estimated by change in total cellular ATP levels using CellTiterGlo assays (Promega). Preparation of recombinant SIK proteins and IC50 measurements were conducted as described previously (21). Total RNA was extracted using a NucleoSpin 96 RNA isolation kit (Macherey-Nagel) followed by cDNA synthesis and multiplex RT-PCR using a microfluidic dynamic array (Fluidigm). The concentrations of TNF-α, IL-6, IL-10, IL-12p40, IL-1β and RANTES in culture supernatants were detected using a FlexSet Cytometric bead array (BD Biosciences). Alternatively, IL-10 secretion was quantified using ELISA (BD Biosciences) or AlphaLISA (PerkinElmer) assays. NO production was estimated based on nitrate content in culture medium using the Greiss reagent.
Preparation of BMDCs from 10BiT reporter mice expressing an il10-Thy1.1 transgene, SIK inhibitor treatment and zymosan stimulation was conducted as described above. […]
In general terms: A reporter such as luciferase makes a cellular process visible.

Assay [2] addresses Src (Homo sapiens, UniProt P12931). To be noted: cited from earlier work.
Assay [3] deals with T1, SIK1 (Homo sapiens, UniProt P57059).
T1 construct: made in house
T1 sequence (P57059 whole entry): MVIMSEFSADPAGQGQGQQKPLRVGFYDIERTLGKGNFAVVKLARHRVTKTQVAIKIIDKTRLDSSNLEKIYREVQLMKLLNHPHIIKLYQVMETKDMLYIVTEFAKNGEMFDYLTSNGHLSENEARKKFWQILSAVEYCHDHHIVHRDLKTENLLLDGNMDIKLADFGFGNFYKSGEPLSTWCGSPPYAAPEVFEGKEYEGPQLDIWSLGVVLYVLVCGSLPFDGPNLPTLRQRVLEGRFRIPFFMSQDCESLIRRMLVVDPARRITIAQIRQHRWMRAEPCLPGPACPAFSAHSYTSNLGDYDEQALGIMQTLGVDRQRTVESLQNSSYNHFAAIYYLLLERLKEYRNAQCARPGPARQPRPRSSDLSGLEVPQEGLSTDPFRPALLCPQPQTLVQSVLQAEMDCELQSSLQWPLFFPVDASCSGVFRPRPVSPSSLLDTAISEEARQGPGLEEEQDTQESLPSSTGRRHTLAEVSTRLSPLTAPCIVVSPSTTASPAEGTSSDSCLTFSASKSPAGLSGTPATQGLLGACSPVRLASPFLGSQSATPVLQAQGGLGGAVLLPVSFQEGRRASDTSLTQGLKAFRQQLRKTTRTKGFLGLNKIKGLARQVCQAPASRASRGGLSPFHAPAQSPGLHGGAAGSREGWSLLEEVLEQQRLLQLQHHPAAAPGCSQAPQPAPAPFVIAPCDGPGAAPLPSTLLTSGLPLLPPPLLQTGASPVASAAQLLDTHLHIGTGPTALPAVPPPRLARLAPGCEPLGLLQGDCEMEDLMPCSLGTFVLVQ
Description: Protein kinase assay ([γ-32P] ATP, phosphocellulose paper) against SIK1. Type of assay: biochemical. To be noted: read-out: Enzyme Inhibition IC50 SIK1. The method, then:
as §1, with “Total RNA was extracted using a NucleoSpin 96 RNA isolation kit (Macherey-Nagel) followed by cDNA synthesis and multiplex RT-PCR using a microfluidic dynamic array (Fluidigm).” left out, “NO production was estimated based on nitrate content in culture medium using the Greiss reagent.” left out
In another set of experiments, the activities of the SIK inhibitors described herein against SIK were determined according to the methods reported in Hastie et al., Nature Protocols, 2006, 1, 968-971. […]
The specific activity of the [γ-^32P] […] To measure the concentration of ATP, a sample of such a stock solution was diluted to 20 μM, and the absorbance of the diluted sample was measured at 259 nm. The absorbance of a 20-μM stock solution of ATP at 259 nm was about 0.31. […] ATP to produce a radioactivity of 1×10^5 to 1×10^6 c.p.m. per nmol. […]

Assay [4] addresses T2, SIK2 (Homo sapiens, UniProt Q9H0K1).
T2 construct: made in house
The assay is described as follows: Protein kinase assay ([γ-32P] ATP, phosphocellulose paper) against SIK2. To be noted: for remaining activity at 0.1 µM / remaining activity at 1 µM: DMSO set to 100%; for remaining activity at 0.1 µM: read-out: Activity of protein kinase treated with 0.1 μM of I-1 (% control (DMSO)) SIK2; for remaining activity at 1 µM: read-out: Activity of protein kinase treated with 1 μM of I-1 (% control (DMSO)) SIK2; for IC50: read-out: Enzyme Inhibition IC50 SIK2. Type of assay: biochemical. How it is done: as §1
(§2) In another set of experiments, the activities of the SIK inhibitors described herein against SIK were determined according to the methods reported in Hastie et al., Nature Protocols, 2006, 1, 968-971.
(§3) This buffer consisted of 50 mM Tris-HCl, pH 7.5, 0.1 mM EGTA, 1 mg ml^−1 bovine serum albumin and 0.1% (vol/vol) 2-mercaptoethanol.
(§4) An assay buffer of 500 mM Tris-HCl, pH 7.5, 1 mM EGTA, and 100 mM magnesium acetate was used for the protein kinase assay.
(§5) The specific activity of the [γ-^32P] ATP solution was 1×10^5 to 1×10^6 c.p.m. per nmol depending on what was needed to produce an optimal signal/noise ratio. Stocks of nonradioactive (“cold”) ATP were dissolved in 10 mM HEPES, and the pH of the resulting stock solutions was adjusted to 7.4. To measure the concentration of ATP, a sample of such a stock solution was diluted to 20 μM, and the absorbance of the diluted sample was measured at 259 nm. The absorbance of a 20-μM stock solution of ATP at 259 nm was about 0.31. The 1-mM solution of cold ATP was “spiked” with [γ-^32P] ATP to produce a radioactivity of 1×10^5 to 1×10^6 c.p.m. per nmol.
(§6) 1) The number of assay samples needed was determined based on, e.g., the following considerations: (i) each condition was assayed in duplicate; (ii) two controls containing peptide or protein substrate and ATP but no SIK were included to assess contamination by any free ATP not incorporated into substrate, alongside two controls lacking a peptide or protein substrate but containing ATP and SIK to correct for any incorporation of phosphate into the kinase itself (e.g., autophosphorylation); and (iii) a maximum of 40 samples were assayed manually at one time by a single person. Microcentrifuge tubes were label distinctly and were placed on ice.
(§7) 4) Dilute the SIK in enzyme dilution buffer and place on ice.
(§8) 5) Pipette 5 j±l of 10× concentrated assay buffer, 5 j±l peptide or protein substrate (the two “no-substrate” control tubes had 5 j±l water added instead of peptide or protein substrate), and 30 μl distilled water into each tube. Keep the tubes on ice.
(§9) 6) Add 5 μl diluted SIK to each tube, except for the two “no-enzyme” control tubes, which had 5 μl enzyme dilution buffer added, and still keeping the tubes on ice. In some cases, premixed “cocktails” of assay components were prepared containing peptide or protein substrate, assay buffer, and distilled water to limit the number of additions to each assay tube. Each of steps 7 to 14 was done behind a plexiglass shield.
(§10) 7) Insert each tube into the water bath at intervals of 15 s to allow the assay mixture to reach 30° C. Begin the SIK reactions by adding 5 μl of 1 mM [γ-^32P] ATP to each tube at intervals of 15 s. Close each tube, vortex for 1 s to mix the contents and immediately replace in a rack in the water bath. Incubate for 10 min at 30° C. […]

In assay [5] the target is T3, SIK3 (Homo sapiens, UniProt Q9Y2K2).
T3 construct: made in house
T3 sequence (Q9Y2K2 whole entry): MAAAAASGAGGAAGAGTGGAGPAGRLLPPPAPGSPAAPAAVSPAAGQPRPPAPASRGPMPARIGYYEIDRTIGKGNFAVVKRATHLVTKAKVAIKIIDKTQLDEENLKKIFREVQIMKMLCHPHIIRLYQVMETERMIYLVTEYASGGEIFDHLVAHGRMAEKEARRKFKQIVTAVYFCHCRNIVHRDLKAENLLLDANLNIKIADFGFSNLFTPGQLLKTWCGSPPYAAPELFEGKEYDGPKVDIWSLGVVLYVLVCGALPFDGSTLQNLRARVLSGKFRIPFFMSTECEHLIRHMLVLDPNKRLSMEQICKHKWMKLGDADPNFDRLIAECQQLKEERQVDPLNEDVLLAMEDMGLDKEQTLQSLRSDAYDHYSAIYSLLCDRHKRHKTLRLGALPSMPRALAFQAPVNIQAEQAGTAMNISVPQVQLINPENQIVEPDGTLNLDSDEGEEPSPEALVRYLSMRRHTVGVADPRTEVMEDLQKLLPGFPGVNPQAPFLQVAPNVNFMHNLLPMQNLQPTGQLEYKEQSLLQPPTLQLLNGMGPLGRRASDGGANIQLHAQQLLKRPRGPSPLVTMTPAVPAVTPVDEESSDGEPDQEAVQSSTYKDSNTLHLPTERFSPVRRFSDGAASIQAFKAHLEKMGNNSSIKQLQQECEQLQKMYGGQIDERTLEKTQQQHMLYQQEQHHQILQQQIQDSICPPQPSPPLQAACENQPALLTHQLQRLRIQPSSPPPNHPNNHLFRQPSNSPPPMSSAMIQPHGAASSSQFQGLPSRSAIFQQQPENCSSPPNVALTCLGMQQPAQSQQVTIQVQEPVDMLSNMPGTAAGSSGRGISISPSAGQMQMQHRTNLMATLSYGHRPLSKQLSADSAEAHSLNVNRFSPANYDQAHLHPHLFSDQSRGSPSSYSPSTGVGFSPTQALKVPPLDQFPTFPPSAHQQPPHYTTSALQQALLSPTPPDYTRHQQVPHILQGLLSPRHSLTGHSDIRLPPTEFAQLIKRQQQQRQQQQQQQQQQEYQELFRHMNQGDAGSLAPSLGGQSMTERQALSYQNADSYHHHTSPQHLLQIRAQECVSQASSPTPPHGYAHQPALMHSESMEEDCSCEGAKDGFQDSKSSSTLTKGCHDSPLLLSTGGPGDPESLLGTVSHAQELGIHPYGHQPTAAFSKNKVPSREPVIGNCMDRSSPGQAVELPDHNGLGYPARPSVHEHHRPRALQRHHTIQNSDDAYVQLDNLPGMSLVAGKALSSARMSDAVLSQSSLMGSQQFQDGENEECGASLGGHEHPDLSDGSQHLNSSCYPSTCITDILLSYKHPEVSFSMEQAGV
The assay is described as follows: Protein kinase assay ([γ-32P] ATP, phosphocellulose paper) against SIK3. To be noted: for remaining activity at 0.1 µM / remaining activity at 1 µM: DMSO set to 100%; for remaining activity at 0.1 µM: read-out: Activity of protein kinase treated with 0.1 μM of I-1 (% control (DMSO)) SIK3; for remaining activity at 1 µM: read-out: Activity of protein kinase treated with 1 μM of I-1 (% control (DMSO)) SIK3; for IC50: read-out: Enzyme Inhibition IC50 SIK3. Type of assay: biochemical. The method, then: as §1, §2, §3, §4, §5, §6, §7, §8, §9, §10

Assay [6] deals with SGK. The assay is described as follows: Protein kinase assay against SGK (selectivity). To be noted: DMSO set to 100%. Format: biochemical.

T2 sequence (Q9H0K1 whole entry): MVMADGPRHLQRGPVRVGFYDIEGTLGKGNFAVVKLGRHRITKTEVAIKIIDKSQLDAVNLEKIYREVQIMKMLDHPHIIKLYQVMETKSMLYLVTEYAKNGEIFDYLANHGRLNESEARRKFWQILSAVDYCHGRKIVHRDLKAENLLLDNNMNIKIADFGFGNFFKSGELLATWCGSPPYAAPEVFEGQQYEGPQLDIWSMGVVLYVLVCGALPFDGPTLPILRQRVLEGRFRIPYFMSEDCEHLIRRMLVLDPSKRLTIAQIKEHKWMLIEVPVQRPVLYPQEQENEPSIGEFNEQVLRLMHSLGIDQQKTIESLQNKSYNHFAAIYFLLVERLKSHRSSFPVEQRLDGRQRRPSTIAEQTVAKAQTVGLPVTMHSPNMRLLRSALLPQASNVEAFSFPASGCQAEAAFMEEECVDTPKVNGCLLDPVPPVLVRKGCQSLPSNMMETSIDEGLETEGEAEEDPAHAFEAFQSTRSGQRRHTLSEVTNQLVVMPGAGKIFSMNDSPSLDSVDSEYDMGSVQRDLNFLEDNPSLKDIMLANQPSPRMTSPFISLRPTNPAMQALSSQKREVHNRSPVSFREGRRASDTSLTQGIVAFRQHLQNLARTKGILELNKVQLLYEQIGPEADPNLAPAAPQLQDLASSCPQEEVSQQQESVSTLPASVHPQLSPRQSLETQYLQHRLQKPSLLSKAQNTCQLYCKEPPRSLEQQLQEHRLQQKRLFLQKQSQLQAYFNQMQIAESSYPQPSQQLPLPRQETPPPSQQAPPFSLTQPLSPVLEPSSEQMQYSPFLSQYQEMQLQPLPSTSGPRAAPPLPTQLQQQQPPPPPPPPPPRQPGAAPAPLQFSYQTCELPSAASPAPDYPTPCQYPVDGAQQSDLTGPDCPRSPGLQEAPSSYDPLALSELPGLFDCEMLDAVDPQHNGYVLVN
Src, sequence (P12931 whole entry, species assumed): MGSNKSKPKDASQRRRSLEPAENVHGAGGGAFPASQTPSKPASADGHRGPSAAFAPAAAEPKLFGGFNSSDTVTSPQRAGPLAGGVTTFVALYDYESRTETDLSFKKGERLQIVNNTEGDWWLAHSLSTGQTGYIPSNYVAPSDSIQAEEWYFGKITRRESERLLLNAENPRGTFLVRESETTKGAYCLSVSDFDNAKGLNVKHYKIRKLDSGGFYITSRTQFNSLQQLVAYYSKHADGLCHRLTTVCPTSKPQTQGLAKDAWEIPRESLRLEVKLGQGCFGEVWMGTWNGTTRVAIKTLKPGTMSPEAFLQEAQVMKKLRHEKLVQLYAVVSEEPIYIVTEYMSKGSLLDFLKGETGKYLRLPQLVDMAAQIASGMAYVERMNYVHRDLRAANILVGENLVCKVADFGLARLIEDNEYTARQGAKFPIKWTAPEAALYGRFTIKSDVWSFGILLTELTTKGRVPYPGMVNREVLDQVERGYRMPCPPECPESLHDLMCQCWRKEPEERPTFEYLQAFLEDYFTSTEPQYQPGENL

Turning to `COc1ccc(N(C(=O)Nc2c(C)cccc2C)c2cc(Nc3ccc(N4CCN(C)CC4)cc3)ncn2)c(OC)c1` [HG-9-91-01], the “enhancement of the fraction of BMDCs expressing Il10 following zymosan stimulation” value in assay [1] is recorded as “more than 5 fold”. The Src activity remaining entry in assay [2] was “less than 4%”.
On to `CCN1CCN(c2ccc(Nc3cc(-n4ccnc4Nc4c(C)cccc4C)ncn3)cc2)CC1` [II-1, 6-(2-((2,6-dimethylphenyl)amino)-1H-imidazol-1-yl)-N-(4-(4-ethylpiperazin-1-yl)phenyl)pyrimidin-4-amine], for which the values for the IC50 in assay [3], in assay [4] and in assay [5] were 36.2 nM, 65.1 nM and 120 nM, respectively. In addition, the remaining activity at 0.1 µM was 37% in assay [4] and 45% in assay [5]. Moreover, the remaining activity at 1 µM in assay [4] stood at 9%; in assay [5], 16%.
For `Cc1cccc(C)c1NC(=O)N1C/C=C\COc2cccc(c2)Nc2cc1ncn2` [I-1], in assay [4], the remaining activity at 0.1 µM stood at 10%, the remaining activity at 1 µM turned out to be 5% and the concentration for half-maximal inhibition (IC50) amounted to 9.72 nM. For the same compound, in assay [5], the remaining activity at 0.1 µM worked out at 33%, the remaining activity at 1 µM came out at 13% and the IC50 is 89.1 nM. Moreover, the “Activity of protein kinase treated with 0.1 μM of I-1 (% control (DMSO)) SGK” value in assay [6] (0.1 μM) is 96 % control (DMSO). The “Activity of protein kinase treated with 1 μM of I-1 (% control (DMSO)) SGK” value in assay [6] (1 μM) is on record as 100 % control (DMSO).
